Assay results from patent publication US8450354B2, “Substituted imidazo[1,2-b]pyridazine derivatives, pharmaceutical compositions, and methods of use as β-secretase inhibitors” (High Point Pharmaceuticals, LLC, priority 2010, dated 2013).

Molecular target: T1, BACE-1 enzyme (Homo sapiens, UniProt P56817)
T1 construct: purchased R & D Systems 931AS
Experiment: BACE Fluorescence Resonance Energy Transfer (FRET) Assay
Format: biochemical
Conditions: pH 4-4.5, 30 min pre-incubation, about 1.5 hours reaction, asterisk = mean
Experimental: BACE Fluorescence Resonance Energy Transfer (FRET) Assay
In the following assay, the proteolytic activity of BACE is measured by observing cleavage of a fluorescent group from a peptide substrate containing a rhodamine fluorescent donor and a quenching acceptor.
The inhibitory activity of compounds of Formula (I) may be compared to a statine derived control inhibitor STA200 (MP Biomedical Cat. #STA-200). The cleavage reaction occurs when a BACE-1 substrate (Invitrogen, Cat. #P2986) was added to a reaction mixture containing BACE-1 enzyme (R & D Systems, Cat. #931AS) and allowed to proceed for about 1.5 hours. Fluorescence, used as a marker of BACE activity, is monitored using 540 nm excitation and 585 nm emission wavelengths (Envision, Perkin Elmer).
A typical assay reaction contains BACE-1 enzyme-in assay buffer (50 mM sodium acetate, pH 4-4.5, 0.01% CHAPS (3-[(3-Cholamidopropyl)dimethylammonio]-1-propanesulfonate), 0.0125% TritonX-100, 0.006% EDTA) which is pre-incubated for 30 minutes with test compound in 7.5% DMSO. The reaction is initiated with the addition of BACE-1 substrate in assay buffer and allowed to proceed for about 1.5 hours at room temperature. Assays are conducted in black 384-well microtiter plates and scanned at room temperature using 540 nm excitation and 585 nm emission wavelengths.
In some instances, the percent inhibition at a given concentration is reported instead of the IC50.

T1 sequence (P56817 46-457 limits assumed): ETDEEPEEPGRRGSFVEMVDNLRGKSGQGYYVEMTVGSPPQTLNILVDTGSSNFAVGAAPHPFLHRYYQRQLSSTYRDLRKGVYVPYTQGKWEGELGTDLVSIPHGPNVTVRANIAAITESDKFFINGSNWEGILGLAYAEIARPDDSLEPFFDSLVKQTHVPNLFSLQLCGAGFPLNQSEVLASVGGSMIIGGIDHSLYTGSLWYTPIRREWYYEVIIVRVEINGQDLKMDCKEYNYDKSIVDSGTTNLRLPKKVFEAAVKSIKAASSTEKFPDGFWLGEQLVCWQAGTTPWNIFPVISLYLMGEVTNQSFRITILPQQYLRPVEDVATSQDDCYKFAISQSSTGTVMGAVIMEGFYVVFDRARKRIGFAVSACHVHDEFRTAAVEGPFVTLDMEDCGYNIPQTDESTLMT

Compound | IC50 [µM]
O=C(Nc1nc2cc(-c3cccc(C(F)(F)F)c3)ccc2[nH]1)c1cn2nc(O[C@H]3CCCNC3)ccc2n1 [Example 75] | 0.36
CN(C)CC(O)COc1ccc2nc(C(=O)Nc3nc4cc(-c5cccc(C(F)(F)F)c5)ccc4[nH]3)cn2n1 (stereo not shown) [Example 110] | 0.268
O=C(Nc1nc2cc(-c3cccc(C(F)(F)F)c3)ccc2[nH]1)c1cn2nc(N[C@H]3CCNC3)ccc2n1 [Example 78] | 0.337
O=C(Nc1nc2cc(-c3cccc(C(F)(F)F)c3)ccc2[nH]1)c1cn2nc(OCCNC3CCCCC3)ccc2n1 [Example 39] | 0.197
COc1ccc2nc(C(=O)Nc3nc4cc(OCc5ccccc5)ccc4[nH]3)cn2n1 [Example 4] | 0.105
CO[C@@H]1CCN(c2ccc3nc(C(=O)Nc4nc5cc(-c6ccc(C)s6)ccc5[nH]4)cn3n2)C1 [Example 90] | 1.38
O=C(Nc1nc2cc(-c3cc(F)cc(Cl)c3)ccc2[nH]1)c1cn2nc(OCCNC3CCCCC3)ccc2n1 [Example 51] | 0.173
CN1CCC[C@H]1COc1ccc2nc(C(=O)Nc3nc4cc(-c5cc(F)cc(Cl)c5)ccc4[nH]3)cn2n1 [Example 68] | 0.344
O=C(Nc1nc2cc(-c3cc(F)cc(Cl)c3)ccc2[nH]1)c1cn2nc(OC3CCOCC3)ccc2n1 [Example 16] | 0.289
C[C@H](N)COc1ccc2nc(C(=O)Nc3nc4cc(-c5cccc(C(F)(F)F)c5)ccc4[nH]3)cn2n1 [Example 74] | 0.219
CN(CCOc1ccc2nc(C(=O)Nc3nc4cc(-c5cccc(C(F)(F)F)c5)ccc4[nH]3)cn2n1)c1ccccn1 [Example 44] | 0.241
CC1(C)CCC(c2ccc3[nH]c(NC(=O)c4cn5nc(OC6CCC(O)CC6)ccc5n4)nc3c2)CC1 (stereo not shown) [Example 88] | 0.476
O=C(Nc1nc2cc(-c3cc(F)cc(Cl)c3)ccc2[nH]1)c1cn2nc(OCCN3CCCC3)ccc2n1 [Example 19] | 0.166
CCOCCOCCOc1ccc2nc(C(=O)Nc3nc4cc(-c5cccc(C(F)(F)F)c5)ccc4[nH]3)cn2n1 [Example 11] | 0.32
CN(C)CCOc1ccc2nc(C(=O)Nc3nc4cc(-c5ccc(Cl)c(C(F)(F)F)c5)ccc4[nH]3)cn2n1 [Example 63] | 0.361
CN(C)CCOCCOc1ccc2nc(C(=O)Nc3nc4cc(-c5cccc(OC(F)(F)F)c5)ccc4[nH]3)cn2n1 [Example 56] | 0.176
CC(C)(C)NCCOc1ccc2nc(C(=O)Nc3nc4cc(-c5cccc(OC(F)(F)F)c5)ccc4[nH]3)cn2n1 [Example 30] | 0.27
Cc1ccc2nc(C(=O)Nc3nc4cc(OCc5ccccc5)ccc4[nH]3)cn2n1 [Example 6] | 0.244
N[C@@H]1CCN(c2ccc3nc(C(=O)Nc4nc5cc(-c6cccc(C(F)(F)F)c6)ccc5[nH]4)cn3n2)C1 [Example 76] | 0.23
CN1CCC(Oc2ccc3nc(C(=O)Nc4nc5cc(-c6cc(F)cc(Cl)c6)ccc5[nH]4)cn3n2)CC1 [Example 18] | 0.219
CNCCOc1ccc2nc(C(=O)Nc3nc4cc(-c5cccc(C(F)(F)F)c5)ccc4[nH]3)cn2n1 [Example 70] | 0.381
O=C(O)COc1ccc2nc(C(=O)Nc3nc4cc(-c5cccc(C(F)(F)F)c5)ccc4[nH]3)cn2n1 [Example 97] | 0.161
N[C@H]1CCN(c2ccc3nc(C(=O)Nc4nc5cc(-c6cccc(C(F)(F)F)c6)ccc5[nH]4)cn3n2)C1 [Example 77] | 0.242
CNCCOc1ccc2nc(C(=O)Nc3nc4cc(-c5cc(F)cc(Cl)c5)ccc4[nH]3)cn2n1 [Example 14] | 0.152
CN(CCOc1ccc2nc(C(=O)Nc3nc4cc(-c5cccc(OC(F)(F)F)c5)ccc4[nH]3)cn2n1)c1ccccn1 [Example 37] | 0.322
CN(C)CCN(C)CCOc1ccc2nc(C(=O)Nc3nc4cc(-c5cccc(OC(F)(F)F)c5)ccc4[nH]3)cn2n1 [Example 36] | 0.332
C[C@@H](CO)Oc1ccc2nc(C(=O)Nc3nc4cc(-c5cccc(OC(F)(F)F)c5)ccc4[nH]3)cn2n1 [Example 103] | 0.334
O=C(Nc1nc2cc(-c3cccc(OC(F)(F)F)c3)ccc2[nH]1)c1cn2nc(OCCNC3CCCCC3)ccc2n1 [Example 33] | 0.278
